Data from patent US9393221B2, “Methods and compounds for reducing intracellular lipid storage” (THE GENERAL HOSPITAL CORPORATION, priority 2011, dated 2016).
Structures can show the parent of a compound that is named as a salt.

Test system: ATGL-KO iPSCs
Experiment: High throughput iPSC chemical screening, Oil Red O (ORO) lipid accumulation; on Z-score: test concentration or dose not given here
Format: cell-based, mouse
Settings: glycolytic switch compounds

Row | Structure (SMILES) | Rank in normalized ORO score from screen
1 | CC1=CC(=O)c2ccccc2C1=O [Menadione] | 517
2 | CSc1ccc2c(c1)C(N1CCN(C)CC1)Cc1ccccc1S2.O=C(O)/C=C\C(=O)O (centres unmarked) [Methiothepin maleate] | 658

Same assay, conditions: normalized ORO level vs DMSO-treated cells; compound present during 7 days differentiation, 96-well; negative = decrease in lipid accumulation

Row | Structure (SMILES) | Z-score
3 | CN1[C@@H](C[C@@H](O)c2ccccc2)CCC[C@H]1C[C@H](O)c1ccccc1.Cl [Lobelanidine hydrochloride] | −0.6306
4 | CN1[C@@H](CC(=O)c2ccccc2)CCC[C@H]1C[C@H](O)c1ccccc1.Cl [Lobeline alpha (−) hydrochoride] | −0.5438
5 | CCn1cc(C(=O)O)c(=O)c2cc(F)c(N3CCNC(C)C3)c(F)c21 (centres unmarked) [Lomefloxacin hydrochloride] | 0.00477
6 | CN(C)C(=O)C(CCN1CCC(O)(c2ccc(Cl)cc2)CC1)(c1ccccc1)c1ccccc1 [Loperamide hydrochloride] | −0.1814
7 | N[C@@H](C(=O)N[C@@H]1C(=O)N2C(C(=O)O)=C(Cl)CC[C@H]12)c1ccccc1 [Loracarbef] | 0.6457
8 | CCCCCN(CCCCC)C(=O)C(CCC(=O)O)NC(=O)c1ccc(Cl)c(Cl)c1 (centres unmarked) [Lorglumide sodium salt] | −1.7664
9 | CC[C@H](C)C(=O)O[C@H]1C[C@@H](C)C=C2C=C[C@H](C)[C@H](CC[C@@H]3C[C@@H](O)CC(=O)O3)[C@H]21 [Lovastatin] | 6.935
10 | CN1CCN(C2=Nc3ccccc3Oc3ccc(Cl)cc32)CC1 [Loxapine succinate] | −0.6976
11 | COC1=C[C@@H]2C3=C([C@@H]2C1=O)[C@@H](NC(C)=O)CCc1cc(OC)c(OC)c(OC)c13 [Lumicolchicine gamma] | 0.6596
12 | O=c1cc(-c2ccc(O)c(O)c2)oc2cc(O)cc(O)c12 [Luteolin] | −1.0098
13 | CN(C)[C@@H]1C(O)=C(C(=O)NCNCCCC[C@H](N)C(=O)O)C(=O)[C@@]2(O)C(O)=C3C(=O)c4c(O)cccc4[C@@](C)(O)[C@H]3C[C@@H]12 [Lymecycline] | −1.3365
14 | C#C[C@]1(O)CC[C@H]2[C@@H]3CCC4=CCCC[C@@H]4[C@H]3CC[C@@]21C [Lynestrenol] | −1.3181
15 | CN1C[C@H](CO)C=C2c3cccc4[nH]cc(c34)C[C@H]21 [Lysergol] | −0.3809
16 | NCc1ccc(S(N)(=O)=O)cc1 [Mafenide hydrochloride] | 0.8468
17 | CNCCCC12CCC(c3ccccc31)c1ccccc12 [Maprotiline hydrochloride] | 0.03741
18 | COC(=O)Nc1nc2ccc(C(=O)c3ccccc3)cc2[nH]1 [Mebendazole] | 49.935
19 | CCN(CCCCOC(=O)c1ccc(OC)c(OC)c1)C(C)Cc1ccc(OC)cc1 (centres unmarked) [Mebeverine hydrochloride] | 0.1096
20 | CN1CCc2c(c3ccccc3n2Cc2ccccc2)C1.O=S(=O)(O)c1cccc2c(S(=O)(=O)O)cccc12 [Mebhydroline 1,5-naphtalenedisulfonate] | 0.4999
21 | CNC1(C)C2CCC(C2)C1(C)C (centres unmarked) [Mecamylamine hydrochloride] | 2.563
22 | C=C1c2c(Cl)ccc(O)c2C(=O)C2=C(O)[C@]3(O)C(=O)C(C(N)=O)=C(O)[C@@H](N(C)C)[C@@H]3[C@@H](O)[C@H]12.O=C(O)c1cc(S(=O)(=O)O)ccc1O [Meclocycline sulfosalicylate] | 8.326
23 | CN(C)CCOC(=O)COc1ccc(Cl)cc1 [Meclofenoxate hydrochloride] | 0.4945
24 | Cc1cccc(CN2CCN(C(c3ccccc3)c3ccc(Cl)cc3)CC2)c1 (centres unmarked) [Meclozine dihydrochloride] | 1.227
25 | CC(=O)[C@H]1CC[C@H]2[C@@H]3C[C@H](C)C4=CC(=O)CC[C@]4(C)[C@H]3[C@@H](O)C[C@]12C [Medrysone] | −0.1611
26 | Cc1cccc(Nc2ccccc2C(=O)O)c1C [Mefenamic acid] | −0.2407
27 | CCN(CC)CCNC(=O)COc1ccc(OC)cc1 [Mefexamide hydrochloride] | −0.2169
28 | CC(=O)O[C@]1(C(C)=O)CC[C@H]2[C@@H]3C=C(C)C4=CC(=O)CC[C@]4(C)[C@H]3CC[C@@]21C [Megestrol acetate] | 1.362

Row | Structure (SMILES) | Z-score
29 | CNC[C@H](O)[C@@H](O)[C@H](O)[C@H](O)CO [Meglumine] | −1.1536
30 | COc1ccc2[nH]cc(CCNC(C)=O)c2c1 [Melatonin] | 0.08162
31 | CC12CC3CC(C)(C1)CC(N)(C3)C2 [Memantine Hydrochloride] | −1.2487
32 | CC1=CC(=O)c2ccccc2C1=O [Menadione] | −0.29
33 | C[N+]1(C)CCCC(OC(=O)C(O)(c2ccccc2)c2ccccc2)C1 (centres unmarked) [Mepenzolate bromide] | −0.115
34 | Cc1ccccc1OCC(O)CO (centres unmarked) [Mephenesin] | −0.9401
35 | CCC1(c2ccccc2)NC(=O)N(C)C1=O (centres unmarked) [Mephenytoin] | 0.8864
36 | CCCNC(C)(C)COC(=O)c1ccccc1 [Meprylcaine hydrochloride] | −0.9597
37 | CCC1(c2cccc(O)c2)CCCCN(C)C1 (centres unmarked) [Meptazinol hydrochloride] | −1.0631
38 | C[C@@H](O)[C@H]1C(=O)N2C(C(=O)O)=C(S[C@@H]3CN[C@H](C(=O)N(C)C)C3)[C@H](C)[C@H]12 [Meropenem] | 0.5806
39 | Nc1ccc(O)c(C(=O)O)c1 [Mesalamine] | −0.1803
40 | CN1CCCCC1CCN1c2ccccc2Sc2ccc([S+](C)[O-])cc21 (centres unmarked) [Mesoridazine besylate] | −0.5525
41 | C=N[C@@H](C(=O)N[C@@H]1C(=O)N2[C@@H]1SC(C)(C)[C@@H]2C(=O)O)c1ccccc1 [Metampicillin sodium salt] | 0.638
42 | CNCC(O)c1ccc(O)c(OC)c1.Cl (stereo not drawn) [Metanephrine hydrochloride DL] | −1.0419
43 | C[C@H](N)[C@H](O)c1cccc(O)c1 [Metaraminol bitartrate] | −0.9024
44 | CN1C[C@H](CNC(=O)OCc2ccccc2)C[C@@H]2c3cccc4c3c(cn4C)C[C@H]21 [Metergoline] | 0.5474
45 | CN(C)C(=N)N=C(N)N [Metformin hydrochloride] | 0.7664
46 | CC(=O)OC(C)C[N+](C)(C)C (centres unmarked) [Methacholine chloride] | −0.8044
47 | C=C1c2cccc(O)c2C(=O)C2=C(O)[C@]3(O)C(=O)C(C(N)=O)=C(O)[C@@H](N(C)C)[C@@H]3[C@@H](O)[C@H]12 [Methacycline hydrochloride] | 2.309
48 | CC[N+](C)(CC)CCOC(=O)C1c2ccccc2Oc2ccccc21 [Methantheline bromide] | −0.7033
49 | CN(C)CCN(Cc1cccs1)c1ccccn1 [Methapyrilene hydrochloride] | −0.1861
50 | CC(=O)/N=c1/sc(S(N)(=O)=O)nn1C [Methazolamide] | 0.06841
51 | COC(=O)Nc1nc2ccc(SC(C)C)cc2[nH]1 [Methiazole] | 19.8245
52 | Cn1cc[nH]c1=S [Methimazole] | 0.6934
53 | CS(=N)(=O)CC[C@H](N)C(=O)O (some centres unmarked) [Methionine sulfoximine (L)] | −0.2829
54 | CSc1ccc2c(c1)C(N1CCN(C)CC1)Cc1ccccc1S2.O=C(O)/C=C\C(=O)O (centres unmarked) [Methiothepin maleate] | 0.08061

Row | Structure (SMILES) | Z-score
55 | COc1ccccc1OCC(O)COC(N)=O (centres unmarked) [Methocarbamol] | −1.1429
56 | CN(Cc1cnc2nc(N)nc(N)c2n1)c1ccc(C(=O)N[C@@H](CCC(=O)O)C(=O)O)cc1 [Methotrexate] | 7.697
57 | COc1ccc2c(c1)N(C[C@H](C)CN(C)C)c1ccccc1S2.O=C(O)/C=C\C(=O)O [Methotrimeprazine maleat salt] | 1.548
58 | COc1ccc(OC)c(C(O)C(C)N)c1 (centres unmarked) [Methoxamine hydrochloride] | 0.4239
59 | COc1ccc2[nH]c3c(c2c1)CCN=C3C [Methoxy-6-harmalan] | 1.201
60 | COc1c2occc2cc2ccc(=O)oc12 [Methoxy-8-psoralen] | 1.942
61 | Cc1cc(C(C)(C)CC(C)(C)C)ccc1OCCOCC[N+](C)(C)Cc1ccccc1.[Cl-] [Methyl benzethonium chloride] | 12.6356
62 | C[N+]1(C)[C@@H]2CC[C@H]1C[C@@H](OC(=O)C(CO)c1ccccc1)C2 (some centres unmarked) [Methylatropine nitrate] | −1.1494
63 | C[C@](N)(Cc1ccc(O)c(O)c1)C(=O)O [Methyldopa (L,−)] | 0.02395
64 | CCOC(=O)[C@@](C)(N)Cc1ccc(O)c(O)c1 [Methyldopate hydrochloride] | 0.5054
65 | CC[C@@H](CO)NC(=O)[C@@H]1C=C2c3cccc4[nH]cc(c34)C[C@H]2N(C)C1 [Methylergometrine maleate] | 0.02492
66 | C[C@H]1NC(=O)NC1=O [Methylhydantoin-5-(D)] | −0.6204
67 | C[C@@H]1NC(=O)NC1=O [Methylhydantoin-5-(L)] | −0.97
68 | C[C@H]1C[C@@H]2[C@H]([C@@H](O)C[C@@]3(C)[C@H]2CC[C@]3(O)C(=O)CO)[C@@]2(C)C=CC(=O)C=C12 [Methylprednisolone, 6-alpha] | −1.1745
69 | Cc1cc2c(cc1S(N)(=O)=O)S(=O)(=O)CCC2 [Meticrane] | −0.0455
70 | CN1CCCC(CC2c3ccccc3Sc3ccccc32)C1 (centres unmarked) [Metixene hydrochloride] | −0.8136
71 | CCN(CC)CCNC(=O)c1cc(Cl)c(N)cc1OC [Metoclopramide monohydrochloride] | −1.0824
72 | Cc1ccccc1N1C(=O)c2cc(S(N)(=O)=O)c(Cl)cc2NC1C (centres unmarked) [Metolazone] | −0.7452
73 | CC(=O)Nc1c(I)c(C(=O)N[C@H]2C(O)O[C@H](CO)[C@@H](O)[C@@H]2O)c(I)c(N(C)C(C)=O)c1I (some centres unmarked) [Metrizamide] | 1.8943
74 | Cc1ncc([N+](=O)[O-])n1CCO [Metronidazole] | 0.716
75 | CC(C)(C(=O)c1cccnc1)c1cccnc1 [Metyrapone] | −1.7744
76 | C[C@@]1(O)CCOC(=O)C1 [Mevalonic-D, L acid lactone] | −1.4333
77 | Cc1cccc(C)c1OCC(C)N (centres unmarked) [Mexiletine hydrochloride] | 1.054
78 | CN1CCN2c3ccccc3Cc3ccccc3C2C1 (centres unmarked) [Mianserine hydrochloride] | −1.3517
79 | Clc1ccc(COC(Cn2ccnc2)c2ccc(Cl)cc2Cl)c(Cl)c1 (centres unmarked) [Miconazole] | −0.018
80 | COc1ccc(OC)c(C(O)CNC(=O)CN)c1 (centres unmarked) [Midodrine hydrochloride] | −0.5001
